Where a name gives a salt, the structure may show the parent alone.
target: PAR4 (Homo sapiens (Human), UniProt Q96RI0); assay: FLIPR assay in PAR4-expressing HEK293 cells (PAR4 antagonist activity, calcium mobilization); format: cell-based; conditions: H-Ala-Phe(4-F)-Pro-Gly-Trp-Leu-Val-Lys-Asn-Gly-NH2-induced calcium mobilization
Outline: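 HEK293 EBNA cells stably expressing human PAR4 (also endogenous PAR1) preincubated 30 min at room temperature with compound in HBSS/10 mM HEPES, 0.67% DMSO final. PAR4 agonist peptide then added and intracellular calcium mobilization monitored by fluorescence.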

Chain of PAR4 (Q96RI0 18-385): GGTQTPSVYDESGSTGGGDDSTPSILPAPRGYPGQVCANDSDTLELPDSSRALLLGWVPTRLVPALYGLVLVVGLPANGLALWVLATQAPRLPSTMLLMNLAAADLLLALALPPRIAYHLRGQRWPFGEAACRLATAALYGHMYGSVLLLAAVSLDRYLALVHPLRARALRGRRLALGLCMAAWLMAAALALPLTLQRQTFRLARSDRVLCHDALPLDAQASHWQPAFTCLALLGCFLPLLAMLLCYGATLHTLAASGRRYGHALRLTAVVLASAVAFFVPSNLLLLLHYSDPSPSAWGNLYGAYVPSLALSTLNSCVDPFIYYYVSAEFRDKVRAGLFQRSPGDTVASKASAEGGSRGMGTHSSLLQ

Row | Compound | EC50
1 | COc1cc(OCc2csc(N3CCN(S(=O)(=O)C(C)C)CC3)n2)c2cc(-c3cn4nc(OC)sc4n3)oc2c1 [Example 102, 6-(4-((2-(4-(Isopropylsulfonyl)piperazin-1-yl)thiazol-4-yl)methoxy)-6-methoxybenzofuran-2-yl)-2-methoxyimidazo[2,1-b][1,3,4]thiadiazole] | 2300 pM
2 | CCN(CC1CC1)C(=O)c1ccc(-c2nc(COc3cc(OC)cc4oc(-c5cn6nc(OC)sc6n5)cc34)cs2)cc1 [Example 312] | 770 pM
3 | COc1cc(OCc2csc(-c3ccc(C(=O)N(C)C(C)(C)C)cc3)n2)c2cc(-c3cn4nc(OC)sc4n3)oc2c1 [Example 297] | 520 pM
4 | COCCN(CCOC)c1nc(COc2cc(OC)cc3oc(-c4cn5nc(C)ccc5n4)cc23)cs1 [Example 246] | 1400 pM
5 | COc1cc(OCc2csc(Br)n2)c2cc(-c3cn4nc(OC)sc4n3)oc2c1 [Example 35] | 1300 pM
6 | CCN(C(=O)c1ccc(-c2nc(COc3cc(OC)cc4oc(-c5cn6nc(OC)sc6n5)cc34)cs2)cc1)C1CC1 [Example 299] | 550 pM
7 | COc1nn2cc(-c3cc4c(OCc5csc(-c6ccccc6)n5)cc(Cl)cc4o3)nc2s1 [Example 187, 6-(6-Chloro-4-((2-phenylthiazol-4-yl)methoxy)benzofuran-2-yl)-2-methoxyimidazo[2,1-b][1,3,4]thiadiazole] | 1600 pM
8 | COc1ccc(-c2nc(COc3cc(OC)cc4oc(-c5cn6nc(C)ccc6n5)cc34)cs2)cc1 [Example 214] | 1200 pM
9 | COc1cc(OCc2csc(-c3cccc(OC(C)=O)c3)n2)c2cc(-c3cn4nc(OC)sc4n3)oc2c1 [Example 62] | 480 pM
10 | COc1cc(OCc2csc(-c3ccc(C(=O)N4CCC(C)CC4)cc3)n2)c2cc(-c3cn4nc(OC)sc4n3)oc2c1 [Example 302] | 440 pM
11 | COc1cc(OCc2csc(N3CCCOCC3)n2)c2cc(-c3cn4nc(C)ccc4n3)oc2c1 [Example 218] | 560 pM
12 | COc1cc(OCc2csc(-c3cccc(F)c3)n2)c2cc(-c3cn4nc(OC)sc4n3)oc2c1 [Example 25] | 550 pM
13 | COc1cc(OCc2csc(-c3ccncc3)n2)c2cc(-c3cn4nc(C)ccc4n3)oc2c1 [Example 211, 4-(((6-Methoxy-2-(6-methylimidazo[1,2-b]pyridazin-2-yl)benzofuran-4-yl)oxy)methyl)-2-(pyridin-4-yl)thiazole] | 720 pM
14 | COc1cc(OCc2csc(N3CCC(F)(F)CC3)n2)c2cc(-c3cn4nc(C)ccc4n3)oc2c1 [Example 235] | 440 pM
15 | COc1nn2cc(-c3cc4c(OCc5csc(-c6ccc(C(=O)N(C)C)cc6)n5)cc(F)cc4o3)nc2s1 [Example 185, 4-(4-(((6-Fluoro-2-(2-methoxyimidazo[2,1-b][1,3,4]thiadiazol-6-yl)benzofuran-4-yl)oxy)methyl)thiazol-2-yl)-N,N-dimethylbenzamide] | 410 pM
16 | CCC1CCN(c2nc(COc3cc(OC)cc4oc(-c5cn6nc(C)ccc6n5)cc34)cs2)CC1 [Example 271] | 1300 pM
17 | CCc1sc(N2CCOCC2)nc1COc1cc(OC)cc2oc(-c3cn4nc(C)ccc4n3)cc12 [Example 238] | 730 pM
18 | COc1cc(OCc2csc(Nc3ccc(Br)cc3C)n2)c2cc(-c3cn4nc(OC)sc4n3)oc2c1 [Example 108, N-(4-Bromo-2-methylphenyl)-4-(((6-methoxy-2-(2-methoxyimidazo[2,1-b][1,3,4]thiadiazol-6-yl)benzofuran-4-yl)oxy)methyl)thiazol-2-amine] | 1200 pM
19 | COc1cc(OCc2csc(-c3ccc4c(c3)OCO4)n2)c2cc(-c3cn4nc(OC)sc4n3)oc2c1 [Example 57] | 670 pM
20 | COc1cc(OCc2csc(C3(O)CCC(F)(F)CC3)n2)c2cc(-c3cn4nc(OC)sc4n3)oc2c1 [Example 135, 4,4-Difluoro-1-(4-(((6-methoxy-2-(2-methoxyimidazo[2,1-b][1,3,4]thiadiazol-6-yl)benzofuran-4-yl)oxy)methyl)thiazol-2-yl)cyclohexanol] | 790 pM
21 | COc1cc(OCc2csc(Cl)n2)c2cc(-c3cn4nc(C)ccc4n3)oc2c1 [Example 206, 2-Chloro-4-(((6-methoxy-2-(6-methylimidazo[1,2-b]pyridazin-2-yl)benzofuran-4-yl)oxy)methyl)thiazole] | 12000 pM
22 | COCc1sc(N2CCOCC2)nc1COc1cc(OC)cc2oc(-c3cn4nc(OC)sc4n3)cc12 [Example 90, 4-(4-(((6-Methoxy-2-(2-methoxyimidazo[2,1-b][1,3,4]thiadiazol-6-yl)benzofuran-4-yl)oxy)methyl)-5-(methoxymethyl)thiazol-2-yl)morpholine] | 330 pM
23 | COc1cc(OCc2csc(-c3cccc(O)c3)n2)c2cc(-c3cn4nc(OC)sc4n3)oc2c1 [Example 63] | 630 pM
24 | COc1cc(OCc2csc(N3CC[C@@H](O)C3)n2)c2cc(-c3cn4nc(C)ccc4n3)oc2c1 [Example 253] | 9700 pM
25 | COc1cc(OCc2csc(C3(F)CCOCC3)n2)c2cc(-c3cn4nc(OC)sc4n3)oc2c1 [Example 119, 6-(4-((2-(4-Fluorotetrahydro-2H-pyran-4-yl)thiazol-4-yl)methoxy)-6-methoxybenzofuran-2-yl)-2-methoxyimidazo[2,1-b][1,3,4]thiadiazole] | 720 pM
26 | COc1cc(OCc2coc(N3CC4CCC(C3)O4)n2)c2cc(-c3cn4nc(OC)sc4n3)oc2c1 [Example 98, 3-(4-(((6-Methoxy-2-(2-methoxyimidazo[2,1-b][1,3,4]thiadiazol-6-yl)benzofuran-4-yl)oxy)methyl)oxazol-2-yl)-8-oxa-3-azabicyclo[3.2.1]octane] | 370 pM
27 | COc1cc(OCc2csc(N3CCN(c4ccccc4)CC3)n2)c2cc(-c3cn4nc(C)ccc4n3)oc2c1 [Example 262] | 750 pM
28 | COc1cc(OCc2csc(C3(O)CCN(C(=O)c4ccccc4)CC3)n2)c2cc(-c3cn4nc(OC)sc4n3)oc2c1 [Example 130, (4-Hydroxy-4-(4-(((6-methoxy-2-(2-methoxyimidazo[2,1-b][1,3,4]thiadiazol-6-yl)benzofuran-4-yl)oxy)methyl)thiazol-2-yl)piperidin-1-yl)(phenyl)methanone] | 400 pM
29 | COc1cc(OCc2csc(N3CCSCC3)n2)c2cc(-c3cn4nc(C)ccc4n3)oc2c1 [Example 258] | 810 pM
30 | COc1cc(OCc2csc(C3(c4cccnc4)CCC3)n2)c2cc(-c3cn4nc(OC)sc4n3)oc2c1 [Example 177, 2-Methoxy-6-(6-methoxy-4-((2-(1-(pyridin-3-yl)cyclobutyl)thiazol-4-yl)methoxy)benzofuran-2-yl)imidazo[2,1-b][1,3,4]thiadiazole] | 610 pM

Further lines, results first:

Row | EC50 | Compound
31 | 990 pM | COc1cc(OCc2csc(-c3ccc(C(=O)N(C)C4COC4)cc3)n2)c2cc(-c3cn4nc(OC)sc4n3)oc2c1 [Example 298]
32 | 790 pM | COc1cc(OCc2csc(N3CC[S+]([O-])CC3)n2)c2cc(-c3cn4nc(OC)sc4n3)oc2c1 [Example 55]
33 | 1000 pM | COc1cc(OCc2csc(-c3ccccc3OC)n2)c2cc(-c3cn4nc(OC)sc4n3)oc2c1 [Example 19]
34 | 810 pM | COc1cc(OCc2csc(-c3ccc(COC(C)=O)cc3)n2)c2cc(-c3cn4nc(C)ccc4n3)oc2c1 [Example 226]
35 | 990 pM | COc1cc(OCc2csc(-c3ccncc3)n2)c2cc(-c3cn4nc(C)ccc4n3)oc2c1 [Example 232]
36 | 940 pM | COc1cc(OCc2csc(C3(N)CCOCC3)n2)c2cc(-c3cn4nc(OC)sc4n3)oc2c1 [Example 172, 4-(4-(((6-Methoxy-2-(2-methoxyimidazo[2,1-b][1,3,4]thiadiazol-6-yl)benzofuran-4-yl)oxy)methyl)thiazol-2-yl)tetrahydro-2H-pyran-4-amine, HCl]
37 | 290 pM | COc1cc(OCc2nc(C3(O)CCOCC3)sc2C)c2cc(-c3cn4nc(OC)sc4n3)oc2c1 [Example 124, 4-(4-(((6-Methoxy-2-(2-methoxyimidazo[2,1-b][1,3,4]thiadiazol-6-yl)benzofuran-4-yl)oxy)methyl)-5-methylthiazol-2-yl)tetrahydro-2H-pyran-4-ol]
38 | 24000 pM | COc1cc(OCc2csc(-c3ccc(C(=O)NCCN(C)C)cc3)n2)c2cc(-c3cn4nc(OC)sc4n3)oc2c1 [Example 307]
39 | 540 pM | CCCN(CC)C(=O)c1ccc(-c2nc(COc3cc(OC)cc4oc(-c5cn6nc(OC)sc6n5)cc34)cs2)cc1 [Example 309]
40 | 2900 pM | COc1cccc(Nc2nc(COc3cc(OC)cc4oc(-c5cn6nc(C)ccc6n5)cc34)cs2)c1 [Example 283]
41 | 370 pM | COc1cc(OCc2csc(C3CCN(S(C)(=O)=O)CC3)n2)c2cc(-c3cn4nc(OC)sc4n3)oc2c1 [Example 112, 2-Methoxy-6-(6-methoxy-4-((2-(1-(methylsulfonyl)piperidin-4-yl)thiazol-4-yl)methoxy)benzofuran-2-yl)imidazo[2,1-b][1,3,4]thiadiazole]
42 | 600 pM | COc1cc(OCc2csc(-c3ccc(C(=O)N4CC(O)C4)cc3)n2)c2cc(-c3cn4nc(OC)sc4n3)oc2c1 [Example 290]
43 | 3600 pM | COc1cc(OCc2csc(C3(c4ccc(C)cc4)CCOCC3)n2)c2cc(-c3cn4nc(OC)sc4n3)oc2c1 [Example 157, 2-Methoxy-6-(6-methoxy-4-((2-(4-(p-tolyl)tetrahydro-2H-pyran-4-yl)thiazol-4-yl)methoxy)benzofuran-2-yl)imidazo[2,1-b][1,3,4]thiadiazole]
44 | 820 pM | COc1cc(OCc2csc(-c3ccc(C(F)(F)F)cc3)n2)c2cc(-c3cn4nc(C)ccc4n3)oc2c1 [Example 208, 4-(((6-Methoxy-2-(6-methylimidazo[1,2-b]pyridazin-2-yl)benzofuran-4-yl)oxy)methyl)-2-(4-(trifluoromethyl)phenyl)thiazole]
45 | 470 pM | COc1nn2cc(-c3cc4c(OCc5csc(C6(F)CCOCC6)n5)cc(Cl)cc4o3)nc2s1 [Example 190]

same assay, conditions: H-Ala-Phe(4-F)-[…]NH2-induced calcium mobilization

Row | Compound | EC50
46 | COc1cc(OCc2csc(C3=CCC4(CC3)OCCO4)n2)c2cc(-c3cn4nc(OC)sc4n3)oc2c1 [Example 127, 6-(4-((2-(1,4-Dioxaspiro-[4.5]dec-7-en-8-yl)thiazol-4-yl)methoxy)-6-methoxybenzofuran-2-yl)-2-methoxyimidazo[2,1-b][1,3,4]thiadiazole] | 1600 pM

From US9688695B2, “Imidazothiadiazole and imidazopyrazine derivatives as protease activated receptor 4 (PAR4) inhibitors for treating platelet aggregation” (BRISTOL-MYERS SQUIBB COMPANY, priority 2012, dated 2017)
